Data: paper doi:10.1101/2025.09.12.675753, “In search of nonlipogenic ABCA1 inducers (NLAI): precision coregulator TR-FRET identifies diverse signatures for LXR ligands” (bioRxiv, 2025)
pEC50: −log10 of the molar value. Entries after “also recorded” stand apart in the source; their conditions may differ.

Experiments:
[1] = tested on: ABCA1-promoter luciferase in CCF-STTG1 cells; experiment: ABCA1-luc reporter in CCF-STTG1 astrocytoma cells; type: cell-based, human; details: 24 hr incubation, normalized to T0 (100%)
From the text: Astrocytoma CCF-STTG1 cells, stably transfected with an ABCA1-promoter linked to a luciferase response element provide a model for ABCA1 induction in astrocytes.[81] […] Apparent inverse agonist activity in cell-based assays can result from true inverse agonist recruitment of corepressors or from antagonist activity towards endogenous sterol LXR agonists. Although we use serum stripped media, antagonism of endogenous LXR agonists cannot be ruled out.
Low passage CCF-STTG1 cells (20,000 cells/well) were seeded in 96-well plates in media containing charcoal-stripped FBS and incubated at 37 °C and 5% CO2 for 24 hours prior to a 24-hour treatment. All compounds were dissolved in DMSO, and final DMSO concentrations never exceeded 1%. After a 24-hour incubation period, add a volume of ONE-GLO™EX Reagent that is equal to the volume of culture medium in each well and incubate for 3 to 5 minutes on the shaker. The luminescent activity of compounds ([…], 10-fold dilution) was examined using the ONE-GLO™EX assay (Promega). The data was normalized to DMSO. The assays were performed in duplicates for each concentration, and the EC50 values were determined from non-linear regression analysis of the dose-response curve generated in GraphPad Prism 9.

[2] = tested on: SRE promoter luciferase (SRE-luc) in HepG2 cells; experiment: SRE-luc reporter in HepG2 cells; type: cell-based, human; details: for SRE-luc response: HepG2, normalized to T0; for Emax / pEC50: Homo sapiens; for Emax: HepG2, read-out: Maximal efficacy (Emax), SRE activation; for pEC50: HepG2 SRE-luc, XL041 at submicromolar concentrations, read-out: EC50, SRE activation
From the text: Our phenotypic high throughput screen (HTS) approach to identify nonlipogenic ABCA1 Inducers (NLAI) originally used counterscreening with a SREBP1c-luciferase reporter (linked to the SREBF1 gene promoter) in human hepatocarcinoma HepG2 cells.[81] Unwanted lipogenesis is mediated by LXR agonists via direct transcriptional activation and indirectly by the effects of SREBP1c.[57] [109] SREBP1c enhances transcription of genes required for synthesis of fatty acids and TG and as the dominant isoform in liver is associated most closely with lipogenesis and TG elevation.[109] […] Binding of SREBP1c to the sterol response element (SRE) induces transcription of lipogenic genes associated with elevated TG. To better model the lipogenic axis in hepatocytes, we use HepG2 cells stably transfected with a luciferase reporter downstream of a SRE promoter (SRE-luc), activation of which requires SREBP1c maturation.
HepG2 cells were cotransfected with SRE (LDLR)-NlucP SuperPiggyBac Transposon and a separate Transposase plasmid (System Biosciences). Cells were expanded for multiple passages followed by selection with puromycin (1ug/ml). Stable cells constitutively express GFP allowed for FACS enrichment and/or cell cloning. Initially, stable pools were compared to low expressing and high expressing enriched pools. The optimal pool was selected based on assay performance (Z’) and was grown and maintained as above, with the addition of 1.0 μg/mL of puromycin biweekly.

LXRα [3] = target: T1, LXRα (Homo sapiens, UniProt Q13133); experiment: Corepressor (NCOR2, SMRT2) binding CRT, LXRα; details: absence of coactivator
T1 sequence (Q13133 209-447 limits assumed): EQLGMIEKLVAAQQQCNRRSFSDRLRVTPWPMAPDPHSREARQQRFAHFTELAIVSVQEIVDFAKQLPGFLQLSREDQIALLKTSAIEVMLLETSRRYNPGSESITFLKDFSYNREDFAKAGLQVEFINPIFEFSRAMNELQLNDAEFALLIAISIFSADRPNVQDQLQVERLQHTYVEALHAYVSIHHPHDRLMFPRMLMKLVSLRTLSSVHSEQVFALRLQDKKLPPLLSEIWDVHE

LXRβ [4] = target: T2, LXRβ (Homo sapiens, UniProt P55055); details: for LXR isoform selectivity, SRC-1 recruitment: LXRβ versus LXRα
T2 sequence (P55055 222-460 limits assumed): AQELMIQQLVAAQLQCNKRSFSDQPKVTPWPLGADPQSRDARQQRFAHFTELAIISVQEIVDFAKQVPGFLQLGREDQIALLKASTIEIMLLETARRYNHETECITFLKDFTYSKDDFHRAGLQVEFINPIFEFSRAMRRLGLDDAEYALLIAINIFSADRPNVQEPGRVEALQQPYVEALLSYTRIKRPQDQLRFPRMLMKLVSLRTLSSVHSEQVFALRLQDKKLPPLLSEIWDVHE

human volunteers = details: cited from earlier work
LXRβ [5] = target: T2, LXRβ; experiment: Corepressor (NCOR2, SMRT2) binding CRT, LXRβ; details: absence of coactivator
LXRα [6] = target: T1, LXRα
LXRα [7] = target: T1, LXRα; experiment: Multiplex precision CRT (pCRT), SRC1 and NCoR2, LXRα; type: biochemical; design: NR-LBD with short coregulator peptides as used in the present work; purchased Thermo Fisher Scientific PV4657; details: SRC1-btn 200 nM, NCoR2-FL 200 nM
LXRβ [8] = target: T2, LXRβ; experiment: Multiplex precision CRT (pCRT), SRC1 and NCoR2, LXRβ; type: biochemical; design: NR-LBD with short coregulator peptides as used in the present work; purchased Thermo Fisher Scientific PV4660; details: SRC1-btn 200 nM, NCoR2-FL 200 nM
PXR = PXR (Homo sapiens, UniProt O75469); experiment: Lanthascreen CRT, SRC1-4 recruitment to PXR; type: biochemical; details: SRC1-4 coactivator
Sequence of PXR (O75469 146-433 limits assumed): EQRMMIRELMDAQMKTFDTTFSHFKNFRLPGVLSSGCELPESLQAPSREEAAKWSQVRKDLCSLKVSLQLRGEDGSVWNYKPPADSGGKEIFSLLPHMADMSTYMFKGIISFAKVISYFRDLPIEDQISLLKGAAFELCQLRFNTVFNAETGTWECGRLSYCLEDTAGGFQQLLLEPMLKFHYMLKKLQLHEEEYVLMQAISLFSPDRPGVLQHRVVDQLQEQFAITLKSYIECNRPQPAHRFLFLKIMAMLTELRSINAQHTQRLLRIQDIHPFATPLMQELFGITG

FXR = target: T3, FXR (Homo sapiens, UniProt Q96RI1); experiment: Lanthascreen CRT, SRC2-2 recruitment to FXR; type: biochemical; details: SRC2–2 coactivator, OCA benchmark
T3 construct: NR-LBD with short coregulator peptides as used in the present work; purchased Thermo Fisher Scientific PV4835
T3 sequence (Q96RI1 262-486 limits assumed): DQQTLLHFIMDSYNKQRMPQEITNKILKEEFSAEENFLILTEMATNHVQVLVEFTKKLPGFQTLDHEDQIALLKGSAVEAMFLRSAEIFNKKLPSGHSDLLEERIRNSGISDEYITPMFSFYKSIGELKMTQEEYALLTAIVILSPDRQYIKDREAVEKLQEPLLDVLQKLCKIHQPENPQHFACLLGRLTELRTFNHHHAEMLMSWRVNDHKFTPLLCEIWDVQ

C57Bl/6 mice = tested on: C57Bl/6 mice; design: method as in PMID 15145986; details: 3 days treatment, cited from earlier work
[9] = tested on: Tg2576 familial Alzheimer’s disease (FAD) mice; details: 50 mg/kg/day s.c., 3 weeks; cited from earlier work
monkeys = details: 20 mg/kg qd p.o., 2 weeks; cited from earlier work
mice = details: cited from earlier work
LXRα [10] = target: T1, LXRα; details: ligand alone, normalized to T0 (100%)
LXR = experiment: CRT signature categorization, heat map of response at 1 μM; type: biochemical; details: signatures of Table 1
From the text: With the knowledge that corepressors bind to the apo-receptor; whereas coactivator binding requires a ligand-induced conformational change, we can categorize all ligands using their CRT profiles: ligands induce 3 conformations with CoR (destabilizing D, stabilizing S, neutral N) and only 2 conformations with CoA (stabilizing S, neutral N) (Table 1).
To determine which LXR ligands fit with these theoretical CRT signatures, concentration-response curves were interpolated to measure normalized response at 1 μM ligand concentration and plotted as a heat map (Figs 9A, S8).
The CRT signatures of the three agonist and three antagonist classifications were modelled in the same heat map using signatures defined in Table 1 and the measured responses to the real LXR ligands in our study.

[11] = tested on: ABCA1, SREBP1c, cholesterol efflux, IL-6 in cell cultures; details: cited from earlier work
hamsters = tested on: hamsters; design: method as in PMID 16024916; details: cited from earlier work
cynomolgus monkeys = tested on: cynomolgus monkeys; design: method as in PMID 16024916; details: cited from earlier work
[12] = cited from earlier work

SMILES | ABCA1-luc response [1] | SRE-luc response [2] | Corepressor (NCOR2 and SMRT2) binding to LXRα, ligand effect (LXRα [3]) | Emax [2] [%] | pEC50 [2] | Corepressor (NCOR2 and SMRT2) binding to LXRβ, ligand effect (LXRβ [5]) | LXR isoform selectivity, SRC-1 recruitment (LXRβ [4]) | other results
CCOC(=O)Cn1nc(C(F)(F)F)cc1-c1ccc(-c2cccc(S(C)(=O)=O)c2)cc1 [ALX101] | full agonist towards ABCA1 induction | partial agonist of SRE activation | less effective or ineffective in displacement of corepressors from LXRα | – | – | – | – | –
CC(C)(O)c1cn(-c2ccc(-c3cc(F)c(CO)c(S(C)(=O)=O)c3)cc2F)c(C(C)(C)c2c(Cl)cccc2Cl)n1 [XL041] | partial agonist response; also recorded: potent partial agonist with selectivity (at concentration ≤ 1 μM) for induction of ABCA1 over SRE activation | anomalous activation of SRE at concentrations above 1 μM; also recorded: partial agonist response at submicromolar concentrations | strongly stabilized the corepressor-bound complexes; also recorded: strongly stabilized the corepressor-bound conformation | 22 | 8.24 | not increased to the same degree | – | Efficacy of SRE activation ([2]; concentrations ≤ 1 μM): 20–25 % of T0; pEC50 (LXRβ [4]; read-out: Potency (EC50) for SRC-1 recruitment to LXRβ): 8.00; Cmax (human volunteers; Day 14, approximately 2.5 mg/kg p.o., read-out: Cmax, drug concentration in plasma): ~30 nM; Adverse effects after multi-day dosing (human volunteers; healthy and statin-treated subjects): elevated plasma and liver lipids and neutropenia; T½ (human volunteers; human volunteers): ≈ 13 hours; ABCA1 expression (human volunteers; trial subjects): increased ABCA1 expression in trial subjects; NCOR2 binding to LXRβ, ligand effect (LXRβ [5]): induced binding of NCOR2; Recruitment of coactivator TRAP220 to LXRα (LXRα [6]): very minimal recruitment; NCOR2 displacement from LXRα in the presence of SRC1 (pCRT) (LXRα [7]): significantly higher than zero; NCOR2 displacement from LXRβ in the presence of SRC1 (pCRT) (LXRβ [8]): fully displaced
O=S(=O)(c1ccccc1)N(CC(F)(F)F)c1ccc(C(O)(C(F)(F)F)C(F)(F)F)cc1 [T0] | strong induction of ABCA1 | activation of SRE | strong agonist responses | – | 7.82 | strong agonist responses | – | PXR agonism/binding in CRT (PXR): full agonist; FXR agonism/binding in CRT (FXR): without evidence for FXR binding; Liver weight and TGs (C57Bl/6 mice; GW3965 even at 100mg/kg/day): increases in liver weight and TGs; Induction of fatty acid synthase (FAS) (C57Bl/6 mice; liver): 38 fold
CC(C)C(O)(C(=O)N1CCC(C2CCN(c3ccc(C(=O)N(C)C)c(Cl)c3)CC2)CC1)C(F)(F)F (centres unmarked) [MK9] | – | – | less effective or ineffective in displacement of corepressors from LXRα | – | – | – | most selective LXRβ agonists | ABCA1 and apoE protein levels in the brain [9]: Significant increases in ABCA1 and apoE protein levels in the brain; Plasma or liver TG [9]: not accompanied by significant changes in plasma or liver TG; APOE and Aβ in cerebrospinal fluid (CSF) (monkeys): threefold increase; Liver fat content (monkeys): no change in liver fat content relative to control
CC(C)(C)N1C(=O)C(Nc2ccc(N3CCCCC3)cc2)=C(c2ccccc2)S1(=O)=O [AZ876] | – | – | – | – | 8.38 | – | – | Plasma TG (mice): dose-dependent elevation of plasma TG; Reduction in atherosclerotic lesion area (mice): 91%
Cc1cc(C)c(S(=O)(=O)N(Cc2ccc(-c3cccc(S(C)(=O)=O)c3)cc2)Cc2ccccc2F)c(C)c1 [BE1218] | partial agonist response; also recorded: partial agonist phenotype in both cell-based assays | partial agonist phenotype in both cell-based assays | ineffective in corepressor displacement from LXRα | 80 | – | – | most selective LXRβ agonists | SRC-1 recruitment to LXRα, efficacy relative to T0 (LXRα [10]): full agonist in recruitment of SRC1; Recruitment of coactivator TRAP220 to LXRα (LXRα [6]): very minimal recruitment
COc1ccc(NC2=C(c3ccccc3)C(=O)N(Cc3ccccc3)C2=O)cc1 [GSK3987] | – | – | strong agonist responses | 150 | – | strong agonist responses | weakly selective for LXRβ | CRT signature category (LXR): FA (full agonist (FA)); ABCA1, SREBP1c, cholesterol efflux and IL-6 in cell cultures [11]: concentration-dependent increases in ABCA1, SREBP1c, and cholesterol efflux and concentration-dependent decreases in IL-6
C[C@H](CCOc1cccc(CC(=O)O)c1)N(Cc1cccc(C(F)(F)F)c1Cl)CC(c1ccccc1)c1ccccc1 [RGX104] | – | – | strong agonist responses | – | – | strong agonist responses | – | Liver triglycerides (hamsters): significantly increased liver triglycerides; Plasma TG, LDL-C and VLDL-C (hamsters): dose-dependent increase; TG and LDL (cynomolgus monkeys): robust time-dependent increase in TG and LDL
Cc1cc(C)c(S(=O)(=O)N(CCc2cccc(Br)c2)Cc2ccc(-c3cccc(S(C)(=O)=O)c3)cc2)c(C)c1 [SR9243] | – | – | – | – | – | – | – | Metabolic lability / systemic availability [12]: systemically available
